Experimental data: PMC8476055, “Synthesis and Biological Activity of Triterpene–Coumarin Conjugates” (Journal of Natural Products, 2021)
“And” between values parts separate entries of the source, which are not always exact repeats. Identical values can stand only once.

What was measured:
[1] = system: HT29 human colon adenocarcinoma cells; test: MTT cell proliferation assay, HT29 cells; assay type: cell-based; settings: HT-29, 72 h treatment, untreated control = 100% viability, read-out: IC50, growth inhibition of HT29 cells
Protocol: (§1) These studies were performed using a 3-(4,5-dimethylthiazol-2-yl)-2,5-diphenyltetrazolium bromide (MTT) assay, with increasing concentration levels of each compound (0–200 μg/mL). Cell viability was determined after treatment for 72 h, by absorption of a formazan dye.
(§2) […] ATTC HTB-38), Hep G2 human hepatocyte carcinoma cells (ECACC 85011430), nontumor human epithelial lung fibroblast cells HPF (ScienCell catalog (cat.) no. 3300), nontumor rat ileum cells IEC-18 (ECACC no. 88011801), and nontumor human embryo liver cells (ECACC 89121403) were cultured in DMEM medium supplemented with 2 mM glutamine, 10% heat-inactivated fetal bovine serum (FCS), 10.000 units/mL penicillin, and […]. These cells were incubated at 37 °C in an atmosphere of 5% CO2 and 95% humidity. The culture media were changed every 48 h, and the confluent cultures were separated with a trypsin solution (0.25% EDTA). Subconfluent monolayer cells were used in all experiments. All cell lines used were provided by the cell bank of the University of Granada (Spain).
(§3) The effect of the synthesized compounds on the viability of tumor cells was assessed using an MTT assay, based on the ability of living cells to cleave the tetrazolium ring, thus producing formazan, which absorbs at 570 nm. […] For an evaluation of the cytotoxic effects of these compounds, the cells were seeded in 96-well plates at an initial density of 5 × 10^3 B16–F10 cells, 6 × 10^3 HT29 cells, 15 × 10^3 Hep G2 cells, 8 × 10^3 HPF cells, 15 × 10^3 IEC-18 cells, and 11 × 10^3 WRL68 cells, per well. After incubation for 24 h, the cells were treated with the synthesized compounds in triplicate, at different concentrations (0–200 μg/mL), and incubated for 72 h. Thereafter, 100 μL of MTT solution (0.5 mg/mL) were added to each well. After 2 h of incubation, the cells were washed twice with phosphate buffered saline (PBS), and the formazan was resuspended in 100 μL of DMSO. Relative cell viability, with respect to untreated control cells, was measured by absorbance at 550 nm on an ELISA plate reader (Tecan Sunrise MR20-301, TECAN, Austria). […] These experiments were measured and compared to the control after 72 h of treatment.

[2] = system: Hep G2 human hepatocyte carcinoma cells; test: MTT cell proliferation assay, Hep G2 cells; assay type: cell-based; settings: HepG2, 72 h treatment, untreated control = 100% viability, read-out: IC50, growth inhibition of Hep G2 cells
Protocol: as §1, §2, §3

B16–F10 cells [3] = test: Annexin V-FITC/PI flow cytometry (apoptosis), B16–F10; assay type: cell-based, murine; settings: B16-F10, 72 h at IC50 concentration, mean ± S.E.M.
Protocol: (§4) In consideration of the cytotoxic results of these triterpene conjugates with the three cell lines assayed, three MA–diamine–coumarin conjugates (1, 4, and 7) and the MA–coumarin conjugate 10 were selected for the following cytometry studies on the three cancer cell lines. Thus, the apoptotic determination assays were performed through double staining with Annexin V (An-V), conjugated fluorescein isothiocyanate (FITC), and propidium iodide (PI). […] The values of percentage of total apoptosis were expressed as means ± SEM of at least two duplicate experiments (Figure 1).
(§5) Apoptosis was assessed by flow cytometry using a FACScan (fluorescence-activated cell sorter) flow cytometer (Coulter Corporation, Hialeah, FL, USA). For these assays, 5 × 10^4 B16–F10, 6 × 10^4 HT29 cells, and 15 × 10^4 Hep G2 cells were placed in 24-well plates with 1.5 mL of medium and incubated for 24 h. Subsequently, the cells were treated with the selected compounds in triplicate for 72 h at their corresponding IC50 concentrations. The cells were collected and resuspended in a binding buffer (10 mM HEPES/NaOH, pH 7.4, 140 mM NaCl, 2.5 mM CaCl2). Annexin V-FITC conjugate (1 mg/mL) was then added and incubated for 15 min at room temperature in darkness. Just before the analysis by flow cytometry, cells were stained with 20 μL of 1 mg/mL PI solution. In each experiment, approximately 10 × 10^3 cells were analyzed, and the experiment was duplicated twice.

Hep G2 cells = test: Annexin V-FITC/PI flow cytometry (apoptosis), Hep G2; assay type: cell-based, human; settings: Hep G2, 72 h at IC50 concentration, mean ± S.E.M.
Protocol: as §4, §5

B16–F10 cells [4] = test: Mitochondrial-membrane potential (Rh123) flow cytometry, B16–F10; assay type: cell-based, murine; settings: B16–F10, 72 h at IC50 concentration
Protocol: The study of the loss of the mitochondrial-membrane potential (MMP) of tumor cells, when treated with drugs, can provide information on the activation mechanism of apoptosis. This activation can occur extrinsically when MMP is not altered, and intrinsically when a loss of this potential is caused by mitochondrial disruption. […] The values of percentage of cell population were expressed as means ± SEM of at least two experiments in duplicate. Changes in MMP were analyzed by monitoring cell fluorescence after staining with rhodamine 123 (Rh123).
The electrochemical gradient across the mitochondrial membrane was examined by analytical flow cytometry, using dihydrorhodamine (DHR), which in contact with living cells, oxidized to form highly fluorescent rhodamine 123 (Rh123). The fluorescence emitted can be monitored by fluorescence spectroscopy using excitation and emission wavelengths of 500 and 536 nm, respectively. […] Following treatment, the culture medium was renewed with fresh medium by adding 0.5 mL of DHR, for a final concentration of […]. Cells were incubated for 1 h at 37 °C in an atmosphere of 5% CO2 and 95% humidity and subsequently washed and resuspended in PBS. The fluorescence intensity was measured using a FACScan flow cytometer (fluorescence-activated cell sorter). The experiments were performed three times with two replicates per assay.

Row | SMILES | IC50 [1] | IC50 [2] | Early Apoptosis (B16–F10 cells [3]) | Late Apoptosis (B16–F10 cells [3]) | Necrosis (B16–F10 cells [3]) | Total Apoptosis (B16–F10 cells [3]) | Viable Cells (B16–F10 cells [3]) | Early Apoptosis (Hep G2 cells) | Late Apoptosis (Hep G2 cells) | Necrosis (Hep G2 cells) | Total Apoptosis (Hep G2 cells) | Viable Cells (Hep G2 cells) | Rh123 staining (mitochondrial-membrane potential) (B16–F10 cells [4]) | melting point
1 | CC1(C)CC[C@]2(C(=O)NCCCNC(=O)Cc3cc(=O)oc4cc(O)ccc34)CC[C@]3(C)C(=CC[C@@H]4[C@@]5(C)C[C@@H](O)[C@H](O)C(C)(C)[C@@H]5CC[C@]43C)[C@@H]2C1 [Compound 4, 2α,3β-Dihydroxy-N-(3′-(2″-(7‴-hydroxy-2‴-oxo-2‴H-chromen-4‴-yl)acetamido)propyl)olean-12-en-28-amide] | > 10 µM | > 10 µM | 74.9 ± 2.6% | 10.5 ± 1.4% | 0.7 ± 0.0% | 85.4 ± 3.0% and 85% | 14.0 ± 3.9% | 48.5 ± 3.8% | 20.1 ± 5.3% | 1.9 ± 0.2% | 68.5 ± 1.6% | 29.7 ± 1.3% | positive Rh123 staining | 143 to 145 °C
2 | CC1(C)CC[C@]2(C(=O)NCCCNC(=O)c3cc4ccccc4oc3=O)CC[C@]3(C)C(=CC[C@@H]4[C@@]5(C)C[C@@H](O)[C@H](O)C(C)(C)[C@@H]5CC[C@]43C)[C@@H]2C1 [Compound 1, 2α,3β-Dihydroxy-N-(3′-(2″-oxo-2″H-chromene-3″-carboxamido)propyl)olean-12-en-28-amide] | > 10 µM | > 10 µM | 48.5 ± 2.8% | 19.4 ± 4.2% | 1.7 ± 0.4% | 67.9 ± 1.5% | 30.5 ± 1.9% | 50.1 ± 4.5% | 19.4 ± 4.8% | 1.8 ± 0.4% | 69.5 ± 2.3% | 28.8 ± 2.8% | positive Rh123 staining | 69 to 71 °C
3 | CC1(C)CC[C@]2(C(=O)O)CC[C@]3(C)C(=CC[C@@H]4[C@@]5(C)C[C@@H](OC(=O)c6cc7ccccc7oc6=O)[C@H](OC(=O)c6cc7ccccc7oc6=O)C(C)(C)[C@@H]5CC[C@]43C)[C@@H]2C1 [Compound 10] | 1.1 ± 0.1 µM | 0.9 µM | 18.1 ± 3.0% | 22.9 ± 3.8% | 5.7 ± 0.8% | 41.0 ± 1.7% | 53.4 ± 2.9% | 19.2 ± 4.9% | 21.6 ± 3.2% | 4.2 ± 1.1% | 40.8 ± 3.2% | 55.0 ± 1.4% | positive Rh123 staining | 200 to 202 °C
4 | CC1(C)CC[C@]2(C(=O)NCCCNC(=O)/C=C/c3ccc(O)cc3)CC[C@]3(C)C(=CC[C@@H]4[C@@]5(C)C[C@@H](O)[C@H](O)C(C)(C)[C@@H]5CC[C@]43C)[C@@H]2C1 [Compound 7, 2α,3β-Dihydroxy-N-(3′-((E)-3″-(4‴-hydroxyphenyl)acrylamido)propyl)olean-12-en-28-amide] | 10.9 ± 0.5 µM | 8.8 ± 0.4 µM | 39.0 ± 4.1% | 18.6 ± 0.1% | 3.1 ± 0.6% | 57.6 ± 3.2% | 39.3 ± 3.5% | 57.4 ± 4.3% | 18.6 ± 3.2% | 2.2 ± 0.6% | 75.9 ± 2.0% and 76% | 21.9 ± 1.3% | positive Rh123 staining | 123 to 125 °C
